In PMC10630842, “Impact of dietary plant flavonoids on 7,8‐dihydroxyflavone transepithelial transport in human intestinal Caco‐2 cells” (Food Science & Nutrition, 2023):
Where “and” joins values, the source holds several entries; their conditions need not be identical. Identical values can stand only once.

Experiments:
[1] = design: method as in Liu et al., 2013; details: C57BL/6 mice, ref Liu et al., 2013; cited from earlier work
[2] = design: method as in Xiao and Högger (2015); details: DMEM solutions during Caco‐2 cell incubation; ref Xiao and Högger (2015); cited from earlier work
[3] = Stability (recovery) of 7,8-DHF in Caco-2 cells with or without inhibitors; details: human, Caco-2, pH 7.4
Procedure: (§5) Simultaneously, 0.5 mL of the aforementioned solution was added to the AP side of the Transwell culture plate containing Caco‐2 cells, while 1.5 mL of blank HBSS added to the BL side. […] The Caco‐2 cell stability test was performed under both inhibitory and non‐inhibitory conditions, and the 7,8‐DHF content in the samples was determined.
(§6) A volume of 200 μL of receiving solution was transferred into a 1 mL centrifuge tube, followed by adding 10 μL of internal standard solution (10 μg/mL apigenin) and 200 μL of methanol. […] Thereafter, 5 μL of the supernatant was injected into the UPLC system. The UPLC system used in this study was a Waters ACQUITY UPLC H‐CLASS series instrument (Waters) equipped with a quaternary solvent manager, a sample manager‐flow through needle, a chromatographic column heater and a PDA eλ detector. […] The mobile phase comprised of methanol (solvent A) and 0.05% trifluoroacetic acid of ultrapure water (solvent B). The gradient elution program was as follows: 20% solvent A (0~1 min), 20%~80% solvent A (1~5 min), 80%~100% solvent A (5~7 min), 100 ~ 20% solvent A (7~8 min), and 20% solvent A (8~9 min). The flow rate maintained at 0.2 mL/min, the temperature was set to 37°C, and the PDA detector wavelength was set at 330 nm.

Caco‐2 cells [4] = test: as above; details: 60 and 240 min incubation
Procedure: as §5, §6

[5] = Stability of 7,8-DHF in HBSS; assay type: physicochemical; details: HBSS pH 7.4, 37°C, 10 μmol/L
Procedure: as §5, §6

Caco‐2 cells [6] = test: Uptake amount of 7,8-DHF in Caco-2 cells at the end of transport; assay type: in vitro ADME, human
Procedure: The cell surface was rapidly washed three times with ice-cold HBSS solution. The cells were harvested using a cell scraper and resuspended in 1.0 mL of 0.1% extraction solution (phosphate: methanol = 1:1, v/v) before being homogenized in an ultrasonicator.

in vitro = in vitro ADME, human; details: human, Caco-2
Procedure: (§1) For this experiment, the 7,8‐DHF sample was first dissolved in a small amount of dimethyl sulfoxide (DMSO) and then diluted with HBSS to a working concentration of 10 μmol/L. The final DMSO concentration in the working solution was controlled to be less than 0.5%. […] Flavonoid samples were added to the AP and BL sides at equimolar concentrations with 7,8‐DHF (the sample concentration in HBSS solution was 10 μmol/L). Prior to transport, dietary flavonoids were pretreated on the AP side for 30 min. Then, these flavonoid reagents were removed, and a 0.5 mL HBSS solution containing various dietary flavonoids with 7,8‐DHF (concentration of 10 μmol/L) was added to the AP side, while 1.5 mL of blank HBSS was added to the BL side. Conversely, 1.5 mL of HBSS solution containing various dietary flavonoids with 7,8‐DHF (10 μmol/L) was added to the BL side, and 0.5 mL of blank HBSS was added to the AP side.
(§2) The magnitude of the apparent permeability coefficients (P app, cm/s) and efflux ratio (ER) reflects the ability of the test substance to pass through the monolayer cells and the speed of absorption.
(§3) (4) ER=PappAB/PappBA where P app AB is the apparent permeability coefficient for AP → BL transport, and P app BA is the apparent permeability coefficient for BL → AP transport.
(§4) Effect of different concentrations of specific flavonoids on 7,8‐DHF transepithelial transport was investigated. The operating procedure was followed by above section, with the exception that specific dietary flavonoid samples were added to the AP and BL sides at varying molar ratios with 7,8‐DHF (2:1, 1:1, 1:2, and 1:4). The specific dietary flavonoids were dissolved in HBSS while controlling the DMSO concentration to be less than 0.5%.

Caco‐2 cells [7] = test: Cytotoxicity, CCK-8 assay; assay type: cell-based, human; details: 24 h
Procedure: To determine the cytotoxicity of 7,8‐DHF for transport experiments, a CCK‐8 assay was carried out (Han et al., [2023]). A total of 200 μL culture medium containing Caco‐2 cells at a density of 3 × 10^4 cells/mL was seeded in a 96‐well plate and incubated for 24 h to allow for adherence. After the incubation period, the culture medium was removed and replaced with 200 μL fresh medium containing 7,8‐DHF at concentrations of 1, 10, 50, 100, and 300 μmol/L. Additionally, 200 μL medium without 7,8‐DHF was added as the control group, while medium without cells was used as the blank group. Following 24 h of drug stimulation, 10 μL CCK‐8 reagent was added to each well followed by another 2 h incubation. The absorbance was measured at 450 nm wavelength using an enzyme‐linked immunosorbent assay reader (Eonmei, BioTek). Each sample was repeated five times, and the cell survival rate was calculated using the following formula: (2) Cell survival rate%=ODsample group−ODblank group/ODcontrol group−ODblank group×100 where OD represents the absorbance of each sample at 450 nm wavelength.

Caco‐2 monolayers = test: Bi-directional transepithelial transport of 7,8-DHF across Caco-2 monolayers with flavonoids screened as P-gp inhibitors (Papp, ER); assay type: in vitro ADME, human; details: for Modulatory effect on 7,8‐DHF transport: flavonoid equimolar with 7,8‐DHF 10 μmol/L; as to Modulatory effect on 7,8‐DHF transport: key: + indicates that the inhibitor has a significant effect on 7,8‐DHF transport; − indicates that the inhibitor has no significant effect on 7,8‐DHF transport
Procedure: as §1, §2, §3, §4

[8] = In vitro digestion stability of 7,8-DHF (simulated saliva, gastric fluid, intestinal fluid); assay type: in vitro ADME; details: 7,8‐DHF combined with the named flavonoid
Procedure: The in vitro digestion model proposed by Versantvoort et al.'s report was modified as follows (Versantvoort et al., [2005]): […] The pH of the system was then adjusted to 7.5 and simulated intestinal fluid containing pancreatin and bile salts was added for 2 h of stirring. During the process, a certain amount of the digested liquid sample from the simulated saliva, gastric fluid, and intestinal fluid were taken, and ethanol was added to precipitate and inactivate the enzymes. […] A 1 mL aliquot was placed in a high-speed centrifuge tube (3K15, Sigma) and centrifuged at 4°C, 11000 × g for 15 min.

[9] = human, Caco-2, 150 min, 10 μmol/L

## O=c1cc(-c2ccccc2)oc2c(O)c(O)ccc12 [7,8‐DHF, 7,8‐Dihydroxyflavone]
[1]
  Oral bioavailability: 4.6%
[2]
  Half‐degradation time: above 180 min
[3]
  recovery at 60 min, 10 μmol/L: 99.11 ± 0.57%
  recovery at 240 min, 10 μmol/L: 97.74 ± 0.42%
Caco‐2 cells [4]
  Metabolism of 7,8‐DHF in Caco‐2 cells (recovery vs blank HBSS): not metabolized
[5]; 60 min
  Recovery of 7,8-DHF: 98.71±1.07%
[5]; 240 min
  Recovery of 7,8-DHF: 97.26±2.17%
Caco‐2 cells [6]; control, 7,8‐DHF without inhibitor, end of 150 min transport
  Uptake amount of 7,8‐DHF in Caco‐2 cells: 0.378 ± 0.018 nmol/mg protein
In vitro
  Papp A→B at 150 min, 10 μmol/L: 1.19 ± 0.08 ×10⁻⁶ cm/s
  Papp B→A at 150 min, 10 μmol/L: 1.91 ± 0.13 ×10⁻⁶ cm/s
  efflux ratio at 150 min, 10 μmol/L: 1.61
Caco‐2 cells [7]; 300 μmol/L
  Cell toxicity toward Caco‐2 cells (CCK‐8): certain cell toxicity
Caco‐2 cells [7]; concentration range 1~100 μmol/L
  Cell toxicity toward Caco‐2 cells (CCK‐8): no significant cell toxicity

## O=c1cc(-c2ccccc2)oc2cc(O)c(O)c(O)c12 [Baicalein, baicalein]
Caco‐2 monolayers; verapamil 100 μmol/L
  Modulatory effect on 7,8‐DHF transport: +
Caco‐2 monolayers; [9]
  ER of 7,8‐DHF in presence of the named inhibitor: 1.59

## COc1ccc(-c2coc3cc(O)cc(O)c3c2=O)cc1 [Biochanin A, biochanin A]
Caco‐2 monolayers; verapamil 100 μmol/L
  Modulatory effect on 7,8‐DHF transport: −

## O=C(O[C@@H]1Cc2c(O)cc(O)cc2O[C@@H]1c1cc(O)c(O)c(O)c1)c1cc(O)c(O)c(O)c1 [EGCG, epigallocatechin gallate]
Caco‐2 monolayers; 7,8‐DHF 10 μmol/L, flavonoid equimolar (1:1, 10 μmol/L), verapamil 100 μmol/L
  ER of 7,8‐DHF in presence of the named inhibitor: 1.34
Caco‐2 monolayers; 7,8‐DHF 10 μmol/L, flavonoid equimolar (1:1, 10 μmol/L), verapamil 100 μmol/L, AP → BL, 150 min
  P app AB of 7,8‐DHF in presence of the named inhibitor: 1.21 ± 0.03 ×10^−6 cm/s
Caco‐2 monolayers; 7,8‐DHF 10 μmol/L, flavonoid equimolar (1:1, 10 μmol/L), verapamil 100 μmol/L, BL → AP, 150 min
  P app BA of 7,8‐DHF in presence of the named inhibitor: 1.63 ± 0.05 ×10^−6 cm/s and 1.62 ± 0.05 ×10^−6 cm/s
Caco‐2 monolayers; 7,8‐DHF 10 μmol/L, flavonoid equimolar (1:1, 10 μmol/L), verapamil 100 μmol/L, listed as epigallocatechin gallate
  ER of 7,8‐DHF in presence of the named inhibitor: less than 1.5
Caco‐2 monolayers; verapamil 100 μmol/L
  Modulatory effect on 7,8‐DHF transport: +

## O=c1c(O)c(-c2ccc(O)c(O)c2)oc2cc(O)ccc12 [Fisetin, fisetin]
Caco‐2 monolayers; verapamil 100 μmol/L
  Modulatory effect on 7,8‐DHF transport: +

## O=c1c(-c2ccc(O)cc2)coc2cc(O)cc(O)c12 [Genistein, genistein]
Caco‐2 monolayers; verapamil 100 μmol/L
  Modulatory effect on 7,8‐DHF transport: +

## O=c1cc(-c2ccc(O)c(O)c2)oc2cc(O)c([C@@H]3O[C@H](CO)[C@@H](O)[C@H](O)[C@H]3O)c(O)c12 [Isoorientin, isoorientin]
Caco‐2 monolayers; verapamil 100 μmol/L
  Modulatory effect on 7,8‐DHF transport: +

## O=c1cc(-c2ccc(O)cc2)oc2cc(O)c([C@@H]3O[C@H](CO)[C@@H](O)[C@H](O)[C@H]3O)c(O)c12 [Isovitexin, isovitexin]
Caco‐2 monolayers; verapamil 100 μmol/L
  Modulatory effect on 7,8‐DHF transport: +
Caco‐2 monolayers; [9]
  ER of 7,8‐DHF in presence of the named inhibitor: 1.55
  P app AB of 7,8‐DHF in presence of the named inhibitor: 1.27 ± 0.08 ×10^−6 cm/s
  P app BA of 7,8‐DHF in presence of the named inhibitor: 1.97 ± 0.11 ×10^−6 cm/s

## O=c1c(O)c(-c2ccc(O)cc2)oc2cc(O)cc(O)c12 [Kaempferol, kaempferol]
[8]
  Effect of combined flavonoid on retention of 7,8‐DHF in simulated in vitro digestion: no significant effects were observed
Caco‐2 monolayers; verapamil 100 μmol/L
  Modulatory effect on 7,8‐DHF transport: +

## O=c1c(O)c(-c2cc(O)c(O)c(O)c2)oc2cc(O)cc(O)c12 [Myricetin, myricetin]
Caco‐2 monolayers; verapamil 100 μmol/L
  Modulatory effect on 7,8‐DHF transport: +

## O=C1C[C@@H](c2ccc(O)cc2)Oc2cc(O)cc(O)c21 [Naringenin, naringenin]
Caco‐2 monolayers; verapamil 100 μmol/L
  Modulatory effect on 7,8‐DHF transport: −
Caco‐2 monolayers; [9]
  P app AB of 7,8‐DHF in presence of the named inhibitor: 1.16 ± 0.02 ×10^−6 cm/s
  P app BA of 7,8‐DHF in presence of the named inhibitor: 1.88 ± 0.11 ×10^−6 cm/s

## O=c1cc(-c2ccc(O)c(O)c2)oc2c([C@@H]3O[C@H](CO)[C@@H](O)[C@H](O)[C@H]3O)c(O)cc(O)c12 [Orientin]
Caco‐2 monolayers; verapamil 100 μmol/L
  Modulatory effect on 7,8‐DHF transport: −

## O=c1c(O)c(-c2ccc(O)c(O)c2)oc2cc(O)cc(O)c12 [Quercetin, quercetin]
[8]
  Effect of combined flavonoid on retention of 7,8‐DHF in simulated in vitro digestion: no significant effects were observed
Caco‐2 cells [6]; molar concentration ratio flavonoid to 7,8‐DHF 1:2
  Uptake amount of 7,8‐DHF in Caco‐2 cells with the named flavonoid: did not increase the uptake
Caco‐2 cells [6]; molar concentration ratio flavonoid to 7,8‐DHF 4:1
  Uptake amount of 7,8‐DHF in Caco‐2 cells with the named flavonoid: did not increase the uptake
Caco‐2 monolayers; verapamil 100 μmol/L
  Modulatory effect on 7,8‐DHF transport: +

## O=c1cc(-c2ccc(O)cc2)oc2c([C@@H]3O[C@H](CO)[C@@H](O)[C@H](O)[C@H]3O)c(O)cc(O)c12 [Vitexin, vitexin]
Caco‐2 cells [6]; flavonoid: 7,8‐DHF 1:1 (equimolar), verapamil 100 μmol/L, end of 150 min transport
  Uptake amount of 7,8‐DHF in Caco‐2 cells after treatment with the named inhibitor: significant decrease
Caco‐2 monolayers; verapamil 100 μmol/L
  Modulatory effect on 7,8‐DHF transport: −
Caco‐2 monolayers; [9]
  P app AB of 7,8‐DHF in presence of the named inhibitor: 1.14 ± 0.16 ×10^−6 cm/s
  P app BA of 7,8‐DHF in presence of the named inhibitor: 1.94 ± 0.03 ×10^−6 cm/s
